The values that follow come from article PMC8279156, “Design, synthesis, HER2 inhibition and anticancer evaluation of new substituted 1,5-dihydro-4,1-benzoxazepines” (Journal of Enzyme Inhibition and Medicinal Chemistry, 2021).

For data set [1], the system named is MCF-7 human breast cancer cell line. Particulars: previously described compounds, cited from earlier work.
The target in data set [2] is isolated HER2 (Homo sapiens, UniProt P04626). As to the kind of experiment: HER2 inhibition assay, radiometric protein kinase assay (33PanQinase Activity Assay). Particulars: for ΔΔG Experiment (3 -> L): binding free energy difference relative to bozepinib (3), extracted from IC50 values; for IC50: isolated HER2, radiometric assay, 10 concentrations in singlicate. In kind it is biochemical. The procedure:
The IC50 profile of the target compounds was determined using isolated HER2. IC50 values were measured by testing 10 concentrations (1 × 10 ^−4 M to 3 × 10 ^−9 M) of each compound in singlicate. A radiometric protein kinase assay (33PanQinase® Activity Assay) was used for measuring the kinase activity of HER2. The assay was performed in 96-well FlashPlatesTM from PerkinElmer (Boston, MA) in a 50 µl reaction volume. […] The reaction cocktails were incubated at 30 °C for 60 min. The reaction was halted with 50 µl of 2% (v/v) H3PO4, plates were aspirated and washed two times with 200 µl 0.9% (w/v) NaCl. Incorporation of ^33Pi was determined with a microplate scintillation counter (Microbeta, Wallac, Waltham, MA).
Human epidermal growth factor receptor 2 (HER2) is overexpressed in about 20% of all breast cancers. […] This prompted us to evaluated compounds 7–9 for their in vitro HER2 inhibitory effect. The IC50 profile of the target compounds was determined against isolated HER2 using a radiometric assay (Table 1).

Data set [3] deals with MCF-7 human breast cancer cell line. As to the kind of experiment: Proliferation assay (sulphorhodamine-B) in MCF-7. In kind it is cell-based. Particulars: MCF7, 72 h of treatment, mean ± SD. The procedure:
(§1) MCF-7, HCT-116, A-375 and SKBR cells were grown at 37 °C in an atmosphere containing 5% CO2, with Dulbecco’s modified Eagle Medium (DMEM) (Gibco, Grand Island, NY) supplemented with 10% heat-inactivated foetal bovine serum (FBS) (Gibco), 2% L-glutamine, 2.7% sodium bicarbonate, 1% Hepes buffer, 40 mg/L gentamicin and 500 mg/L ampicillin.
(§2) Compounds were dissolved in DMSO and stored at −20 °C. For each experiment, the stock solutions were further diluted in medium to obtain the desired concentrations. The final solvent concentration in cell culture was ≤ 0.1% v/v of DMSO, a concentration without any effect on cell replication. Parallel cultures of MCF-7, HCT-116, A375 and SKBR-3 cells in medium with DMSO were used as controls.
(§3) The effect of the compounds on cell viability was assessed using the sulphorhodamine-B colorimetric assay. Cells suspension (1 × 10^3 cells/well) were seeded onto 24-well plates and incubated for 24 h. The cells were then treated with different concentrations of drugs in their respective culture medium and maintained with the treatment for 3 days. Three days later, wells were aspirated and fresh medium and drug were added. Then cell cultures were maintained for 3 additional days. Thereafter, a Titertek Multiscan (Flow, Irvine, CA) at 492 nm was used. The linearity of the SRB assay was evaluated with a cell number for each cell stock before each cell growth experiment. The IC50 values were calculated from semi-logarithmic dose–response curves by linear interpolation. All the experiments were plated in triplicate wells and were carried out twice.
(§4) We then investigated the effects of the target compounds on cell proliferation on the human breast cancer cell lines MCF-7 and SKBR-3, the human colon carcinoma cell line HCT-116 and the human malignant melanoma cell line A-375. The antiproliferative activity of 7–9 was evaluated using sulphorhodamine-B colorimetric assay after 72 h of treatment (Table 3).
(§5) All experiments were conducted in duplicate and gave similar results. The data are mean ± SD of three independent determinations. MCF-7: human breast cancer cell line; SKBR3: human breast cancer cell line; HCT-116: human colon cancer cell line and A-375: human melanoma cancer cell line.

Data set [4] concerns SKBR3 human breast cancer cell line. The data set is described as follows: Proliferation assay (sulphorhodamine-B) in SKBR3. It counts as cell-based. Particulars: SK-BR-3, 72 h of treatment, mean ± SD. The procedure:
as §1, §2, §3, §4, §5

Data set [5] relates to HCT-116 human colon cancer cell line. As to the kind of experiment: Proliferation assay (sulphorhodamine-B) in HCT-116. In kind it is cell-based. The following applies: 72 h of treatment, mean ± SD. The procedure: as §1, §2, §3, §4, §5
The subject of data set [6] is A-375 human melanoma cancer cell line. As to the kind of experiment: Proliferation assay (sulphorhodamine-B) in A-375. In kind it is cell-based. The following applies: 72 h of treatment, mean ± SD, read-out: IC50 A375. The procedure:
as §1, §2, §3, §4, §5

Data set [7] concerns MCF-7, SKBR3, HCT-116 and A-375 cell lines. As to the kind of experiment: Proliferation assay (sulphorhodamine-B), all tumour cell lines studied. In kind it is cell-based. The following applies: Homo sapiens, span over the four cell lines, read-out: IC50 against all the tumour cell lines studied. The procedure: as §1
Compounds were dissolved in DMSO and stored at −20 °C. For each experiment, the stock solutions were further diluted in medium to obtain the desired concentrations. The final solvent concentration in cell culture was ≤ 0.1% v/v of DMSO, a concentration without any effect on cell replication. […]
The effect of the compounds on cell viability was assessed using the sulphorhodamine-B colorimetric assay. […] The linearity of the SRB assay was evaluated with a cell number for each cell stock before each cell growth experiment. The IC50 values were calculated from semi-logarithmic dose–response curves by linear interpolation. […]
We then investigated the effects of the target compounds on cell proliferation on the human breast cancer cell lines MCF-7 and SKBR-3, the human colon carcinoma cell line HCT-116 and the human malignant melanoma cell line A-375. The antiproliferative activity of 7–9 was evaluated using sulphorhodamine-B colorimetric assay after 72 h of treatment (Table 3). […]

Where [8] appears, read: read-out: in vitro antiproliferative activity against MCF-7.

Like-named read-outs stand apart in the source and are kept apart here.

Chain of isolated HER2 (P04626 23-1255): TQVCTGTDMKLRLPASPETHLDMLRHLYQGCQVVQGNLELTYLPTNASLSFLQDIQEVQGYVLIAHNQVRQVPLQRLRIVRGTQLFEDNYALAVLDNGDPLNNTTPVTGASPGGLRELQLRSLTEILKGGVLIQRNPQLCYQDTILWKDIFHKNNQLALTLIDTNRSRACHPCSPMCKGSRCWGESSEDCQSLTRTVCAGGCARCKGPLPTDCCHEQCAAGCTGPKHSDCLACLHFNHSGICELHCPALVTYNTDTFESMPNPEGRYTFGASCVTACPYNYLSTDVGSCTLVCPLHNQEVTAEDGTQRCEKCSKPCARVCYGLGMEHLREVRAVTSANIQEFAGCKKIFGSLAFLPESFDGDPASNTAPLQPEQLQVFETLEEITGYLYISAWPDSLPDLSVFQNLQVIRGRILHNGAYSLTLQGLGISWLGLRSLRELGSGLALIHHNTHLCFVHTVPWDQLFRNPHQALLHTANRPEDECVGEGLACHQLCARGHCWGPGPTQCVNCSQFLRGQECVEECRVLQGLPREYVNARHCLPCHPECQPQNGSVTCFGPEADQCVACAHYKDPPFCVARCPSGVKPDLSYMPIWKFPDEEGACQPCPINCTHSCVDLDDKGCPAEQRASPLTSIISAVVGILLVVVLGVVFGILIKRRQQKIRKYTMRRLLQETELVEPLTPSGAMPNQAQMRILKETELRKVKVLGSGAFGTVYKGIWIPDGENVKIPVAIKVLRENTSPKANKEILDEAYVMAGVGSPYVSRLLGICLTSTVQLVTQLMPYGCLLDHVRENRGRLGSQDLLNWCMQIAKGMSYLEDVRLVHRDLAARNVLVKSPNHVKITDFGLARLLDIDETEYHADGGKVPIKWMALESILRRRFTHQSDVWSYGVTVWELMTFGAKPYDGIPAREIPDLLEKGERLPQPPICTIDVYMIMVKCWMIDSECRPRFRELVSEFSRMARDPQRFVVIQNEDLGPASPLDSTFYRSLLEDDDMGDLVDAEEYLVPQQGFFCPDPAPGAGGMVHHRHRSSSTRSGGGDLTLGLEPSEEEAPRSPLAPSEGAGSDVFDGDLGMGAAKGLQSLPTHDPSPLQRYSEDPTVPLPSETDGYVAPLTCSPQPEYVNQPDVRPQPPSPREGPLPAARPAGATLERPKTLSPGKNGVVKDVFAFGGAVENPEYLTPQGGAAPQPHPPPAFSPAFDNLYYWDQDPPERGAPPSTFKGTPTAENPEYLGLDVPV

Consider `O=[N+]([O-])c1ccc(S(=O)(=O)N2CC(n3cnc4ncnc(Sc5ccccc5)c43)OCc3ccccc32)cc1` (stereo not shown) [Compound 1], for which the IC50 in data set [1] (setting [8]) was 0.86 µM.
In the case of `O=[N+]([O-])c1ccccc1S(=O)(=O)N1CC(n2cnc3ncnc(Sc4ccccc4)c32)OCc2ccccc21` (stereo not shown) [Compound 2], the IC50 in data set [1] (setting [8]) was 2.59 µM.
Take `O=[N+]([O-])c1ccccc1S(=O)(=O)N1CC(n2cnc3c(Cl)nc(Cl)nc32)OCc2ccccc21` (stereo not shown) [Compound 4]: the IC50 in data set [1] (introduction, no reference number printed at the values, read-out: IC50 against the MCF-7 cell line) was 0.383 µM.
As to `Cc1ccc(S(=O)(=O)N2CC(n3cnc4c(Cl)ncnc43)OCc3ccccc32)cc1` (stereo not shown) [Compound 7a, 6-Chloro-9-[1-(p-methylbenzenesulfonyl)-1,2,3,5-tetrahydro-4,1-benzoxazepine-3-yl]-9H-purine], the melting point (usually the temperature, or range, at which the solid turns liquid) lay within 178 to 180 °C. For the same compound, in data set [2], the “ΔΔG Experiment (3 -> L)” value is above 0.76 kcal/mol and the IC50 is above 100 µM. Further, the IC50 in data set [3] stood at 0.12 µM. Also, the IC50 in data set [4] worked out at 1.08 ± 0.02 µM. Further, in data set [5], the IC50 turned out to be 1.03 ± 0.05 µM. The IC50 in data set [6] turned out to be 0.78 ± 0.03 µM. For the same compound, the IC50 in data set [7] was at most 1 µM.
In turn, `Cc1ccc(S(=O)(=O)N2CC(n3cnc4c(Br)ncnc43)OCc3ccccc32)cc1` (stereo not shown) [Compound 7b, 6-Bromo-9-[1-(p-methylbenzenesulfonyl)-1,2,3,5-tetrahydro-4,1-benzoxazepine-3-yl]-9H-purine] returned a melting point of 169 to 171 °C. In data set [2], the “ΔΔG Experiment (3 -> L)” value is on record as above 0.76 kcal/mol and the IC50 is above 100 µM. In data set [3], the IC50 was 9.57 ± 0.03 µM. The same compound returned an IC50 in data set [4] of 2.3 ± 0.04 µM. Further, in data set [5], the IC50 stood at 3.1 ± 0.01 µM. Besides, in data set [6], the IC50 was 3.08 ± 0.01 µM. In addition, the IC50 in data set [7] is 2.3 to 9.57 µM.
Consider `O=[N+]([O-])c1ccc(S(=O)(=O)N2CC(n3cnc4c(Sc5ccccc5)nc(Cl)nc43)OCc3ccccc32)cc1` (stereo not shown) [Compound 9a, 2-Chloro-6-phenylthio-9-[1-(p-nitrobenzenesulfonyl)-1,2,3,5-tetrahydro-4,1-benzoxazepine-3-yl]-9H-purine], for which the melting point was in the range of 183 to 185 °C. In data set [2], the “ΔΔG Experiment (3 -> L)” value was -0.8 kcal/mol and the IC50 was found to be 7.31 µM. In data set [3], this compound registered an IC50 of 26.46 ± 0.03 µM. The compound further returned an IC50 in data set [4] of 71.69 ± 0.5 µM. Besides, in data set [5], the IC50 worked out at 19.62 ± 0.01 µM. For the same compound, in data set [6], the IC50 came out at 13.3 ± 0.07 µM.
Compound `O=[N+]([O-])c1ccc(S(=O)(=O)N2CC(n3cnc4c(Oc5ccccc5)nc(Cl)nc43)OCc3ccccc32)cc1` (stereo not shown) [Compound 9b, 2-Chloro-6-phenoxy-9-[1-(p-nitrobenzenesulfonyl)-1,2,3,5-tetrahydro-4,1-benzoxazepine-3-yl]-9H-purine] had a melting point of 210 to 212 °C. The compound further displayed an IC50 in data set [2] of 13.3 µM. This compound registered an IC50 in data set [3] of 22.4 ± 0.03 µM. Besides, the IC50 in data set [4] is above 100 µM. This compound showed an IC50 in data set [5] above 100 µM. Further, the IC50 in data set [6] is above 100 µM.
For the compound `CN(C)c1nc(Cl)nc2c1ncn2C1CN(S(=O)(=O)c2ccc([N+](=O)[O-])cc2)c2ccccc2CO1` (stereo not shown) [Compound 9c, 2-Chloro-6-dimethylamino-9-[1-(p-nitrobenzenesulfonyl)-1,2,3,5-tetrahydro-4,1-benzoxazepine-3-yl]-9H-purine], the melting point was 203 to 205 °C. In data set [2], the “ΔΔG Experiment (3 -> L)” value is -0.44 kcal/mol and the IC50 came out at 14.4 µM. In data set [3], the IC50 is 20.7 ± 0.02 µM. Moreover, the IC50 in data set [4] is 41.7 ± 0.79 µM. The compound also displayed an IC50 in data set [5] of 87 ± 0.19 µM. The IC50 in data set [6] was above 100 µM.
As for `O=[N+]([O-])c1ccc(S(=O)(=O)N2CC(n3cnc4c(Nc5ccccc5)nc(Cl)nc43)OCc3ccccc32)cc1` (stereo not shown) [Compound 9d, 2-Chloro-6-anilino-9-[1-(p-nitrobenzenesulfonyl)-1,2,3,5-tetrahydro-4,1-benzoxazepine-3-yl]-9H-purine], the melting point lay in the range of 182 to 183 °C. Further, in data set [2], the “ΔΔG Experiment (3 -> L)” value is on record as 0.41 kcal/mol and the IC50 came out at 55.5 µM. The compound further yielded an IC50 in data set [3] of 13.8 ± 0.02 µM. In addition, the IC50 in data set [4] was above 100 µM. This compound also came in with an IC50 in data set [5] above 100 µM. Also, the IC50 in data set [6] was above 100 µM.
Take `O=[N+]([O-])c1ccccc1S(=O)(=O)N1CC(n2cnc3c(Sc4ccccc4)nc(Cl)nc32)OCc2ccccc21` (stereo not shown) [Compound 9e, 2-Chloro-6-phenylthio-9-[1-(o-nitrobenzenesulfonyl)-1,2,3,5-tetrahydro-4,1-benzoxazepine-3-yl]-9H-purine]: the melting point lay in the range of 212 to 214 °C. For the same compound, the IC50 in data set [2] was found to be 11.5 µM. The compound further yielded an IC50 in data set [3] of 20.5 ± 0.06 µM. The IC50 in data set [4] was above 100 µM. Further, the IC50 in data set [5] was above 100 µM. Besides, the IC50 in data set [6] was 92.2 ± 8.9 µM.
The compound `O=[N+]([O-])c1ccccc1S(=O)(=O)N1CC(n2cnc3c(Oc4ccccc4)nc(Cl)nc32)OCc2ccccc21` (stereo not shown) [Compound 9f, 2-Chloro-6-phenoxy-9-[1-(o-nitrobenzenesulfonyl)-1,2,3,5-tetrahydro-4,1-benzoxazepine-3-yl]-9H-purine] came in with a melting point of 142 to 144 °C. Further, the IC50 in data set [2] was 24.6 µM. In data set [3], this compound returned an IC50 of 18 ± 0.02 µM. In data set [4], the IC50 was above 100 µM. Also, the IC50 in data set [5] was above 100 µM. Besides, in data set [6], the IC50 was above 100 µM.
For the compound `O=[N+]([O-])c1ccccc1S(=O)(=O)N1CC(n2cnc3c(Nc4ccccc4)nc(Cl)nc32)OCc2ccccc21` (stereo not shown) [Compound 9g, 2-Chloro-6-anilino-9-[1-(o-nitrobenzenesulfonyl)-1,2,3,5-tetrahydro-4,1-benzoxazepine-3-yl]-9H-purine], the melting point was in the range of 152 to 157 °C. The compound further displayed an IC50 in data set [2] above 100 µM. Further, the IC50 in data set [3] turned out to be 22.5 ± 0.02 µM. In data set [4], this compound displayed an IC50 above 100 µM. Further, in data set [5], the IC50 is above 100 µM. In data set [6], the IC50 is above 100 µM.
